Measurements published in PMC5556071, “ATR inhibition facilitates targeting of leukemia dependence on convergent nucleotide biosynthetic pathways” (Nature Communications, 2017).
Several values for one entry are separate records, joined by “and”; a condition that tells them apart may be missing. Equal values may be shown once. Read-outs that look alike come from different tables or passages of the source.

Tests used:
CEM cells = assay: Quantitative global proteomics (nLC-MS/MS), cells 12 h after release from G1 arrest; assay type: cell-based, human; design: key to RNR Level / dCK Level: ↓: partial decrease/inhibition; ↓↓↓: nearly complete inhibition; ↑: increase; ⟷: no change; details: for Protein expression level normalized to control (NT): Eukaryotic translation initiation factor 6 (EIF6) / Protein expression level normalized to control (NT): Ribonucleoside-diphosphate reductase subunit M2 (RRM2) / Protein expression level normalized to control (NT): Translationally-controlled tumor protein (TPT1): 12 h following release from G1 arrest, independent analyses #1-#4; for RNR Level / dCK Level: summary Fig. 2g, CEM cells
Procedure: To investigate the molecular mechanisms underlying the metabolic consequences of ATR and dCK inhibition, global changes in protein expression were assessed in CEM cells using quantitative nano-LC tandem MS (nLC-MS/MS) (Fig. 2a). Chemical isotope coding following reductive dimethylation of peptide N-termini and lysine primary amines with differential stable isotopes (light:medium:heavy) was used to compare expression of experimental (VE-822, dCKi and VE-822 + dCKi) samples to controls (untreated, NT) by mixing equal proportions for triplex nLC-MS/MS quantitative analyses. The data set was filtered for proteins identified in all treatment groups in three independent experiments with coefficients of variation <20%. This yielded 1757 proteins with relative fold changes in treated vs. untreated cells ranging from 0.45 to 1.83. […] Protein levels of both RNR subunits, RRM1 and RRM2, as well as thymidylate synthase decreased by more than 20% following ATR inhibition (Fig. 2c). Changes in the expression of de novo enzymes observed in synchronous cells also occurred with ATR inhibition in asynchronous CEM cells (Fig. 2d and Supplementary Data 3), thereby arguing against the possibility of experimental artifacts introduced by Palbociclib-mediated cell cycle synchronization. The reduction in RRM2 levels induced by ATR inhibition was accompanied by an ~ 50% decrease in the phosphorylation of RRM2 on threonine 33 (pT33) (Fig. 2e), a phosphosite previously linked to the RRM2 stability. […]
Proteomic analyzes. CCRF-CEM cells were treated ± with a CDK4/6 inhibitor, PD-0332991 (Selleckchem) for 18 h to arrest at G1 phase. Cells were then washed twice with PBS and released in fresh media with treatment at a density of 1 x 10^6 cells/mL. Cells were collected at 12 h, washed twice with ice-cold PBS, and lysed by trituration using 1 mL per 5 x 10^7 cells of 0.5% sodium deoxycholate, 12 mM sodium lauryl sarcosine, and 50 mM triethylammonium bicarbonate, pH 8.0. Lysates were heated at 95 °C for 5 min and water bath sonicated at room temperature (RT) for 5 min. Bicinchoninic acid protein assay (Pierce) was performed to determine protein concentration. Disulfide bridges were reduced with 5 mM tris(2-carboxyethyl)phosphine (final concentration) at RT for 30 min with subsequent treatment with 10 mM iodoacetamide (final concentration) at RT in the dark for 30 min. Solutions were diluted 1:5 (v:v) with 50 mM triethylammonium bicarbonate. Proteins were cleaved with sequencing grade trypsin (Promega) at 1:100 (enzyme:protein) for 4 h at 37 °C followed by a second aliquot of trypsin 1:100 (enzyme:protein) overnight at 37 °C. Samples were acidified with 0.5% trifluoroacetic acid (final concentration), vortexed rapidly for 5 min, and centrifuged (16,000 x g for 5 min, RT) to pellet sodium deoxycholate. Supernatants were transferred to new microcentrifuge tubes and 20 µg of total peptide were desalted using C18 StageTips as previously described2. On-column dimethyl labeling using C18 StageTips was performed as previously described3. Briefly, StageTips were equilibrated with 20 μL of 250 mM 2-(N-morpholino)ethanesulfonic acid (MES) pH 5.5. Tryptic peptides were dimethyl labeled using 60 mM sodium cyanoborohydride, 0.4% formaldehyde, and 250 mM MES pH 5.5 for 10 min. Dimethyl labeled peptides were eluted from StageTips using 20 μL of 80% acetonitrile with 0.1% trifluoroacetic acid and lyophilized to dryness. Due to the nature of comparing 4 sample groups and being limited to 3 channels for stable isotope reductive amination labeling, two independent multiplexed experiments were run with each

[1] = Plasma pharmacokinetics after single dose oral co-administration; assay type: in vivo, C57BL/6 mice
Procedure: 3-AP, dCKi, VE-822 plasma concentrations were assessed at 0.5, 1, 2, 4, 6, 12 and 24 h following oral administration. Blood samples were collected in heparin-EDTA tubes by the retro-orbital technique and spun down to collect the supernatants. Four parts of methanol were added to plasma samples to precipitate proteins, and the supernatant was collected. Twenty microliter samples were injected onto a reverse phase column equilibrated in water 0.1% formic acid for LC-MS/MS-MRM analysis in positive ion mode. Plasma concentrations were determined by comparison to previously generated standard curves. A population pharmacokinetic modeling (NONMEM v. 7.2) with first-order conditional estimation (FOCE) was used to characterize the Cmax, half-life, and area under the curve (AUC) for 3-AP, dCKi, and VE-822. 3-AP and VE-822 were best described with a one compartment model while dCKi was best described by a two-compartment model. All three drugs were well described with first order absorption and a proportional error model. Clearance and volume were scaled by weight. […]
Plasma collection and pharmacokinetic assays. Blood was collected in heparin-EDTA tubes by retro-orbital technique at time points 0.25, 1, 6, and 24 h time points from the first set of mice and 0.5, 4, and 12 h from the second set of mice. Blood samples were spun at 2000 x g for 15 min and the plasma supernatants were collected. All plasma samples were frozen down at –20 °C before sample processing. The stock solutions of 3-AP, VE-822, DI-82, 3-AP analog (NSC 266749), VE-821 (Selleckchem), DI-39 were prepared individually by dissolving the appropriate amount of each drug in a known volume of dimethyl sulfoxide (DMSO) to a 10 mM concentration and were stored at –20 °C before use. The 3-AP analog, VE-821 and DI-39 (internal standards) were diluted to 200 nM in methanol to make the internal solution. The calibration standards were prepared by spiking working stock solutions of 3-AP, VE-822 and DI-82 in plasma from untreated mice to give 0.01-10 pmol/µL range. Each 20 µL calibration standard sample was mixed with 60 µL of internal solution (methanol with 200 nM internal standards) and vortexed for 30 s. Following centrifugation at 15,000 x g for 10 min, approximately 60 µL of sample was carefully transferred into HPLC injector vials for LC-MS/MS-MRM analysis.
Plasma samples were processed the same way as the calibration standard samples. 20 μL samples were injected onto a reverse phase column, (Thermo Scientific Hypersil GOLD column 3.0 µm; 2.1 x 100 mm) equilibrated in water/formic acid, 100/0.1, and eluted (200 μL/min) with an increasing concentration of solvent […]
The effluent from the column was directed to the Agilent Jet Stream ion source connected to the triple quadrupole mass spectrometer (Agilent 6460) operating in the multiple reaction monitoring (MRM) mode using previously optimized settings. The following drug precursor→fragment ion transitions were used: 3-AP

[2] = 3-AP 15, VE-822 40, dCKi 50 mg kg−1
[3] = C57BL/6, mouse, 40 mg/kg, 3-AP 15, VE-822 40, dCKi 50 mg kg−1

Compound: COc1ccc(-c2nc([C@@H](C)Sc3nc(N)cc(N)n3)c(C)s2)cc1OCCNS(C)(=O)=O [dCKi]
- Protein expression level normalized to control (NT): Eukaryotic translation initiation factor 6 (EIF6) (CEM cells; listed as DI-82): 1.00 and 0.98 and 0.95 and 0.99
- Protein expression level normalized to control (NT): Ribonucleoside-diphosphate reductase subunit M2 (RRM2) (CEM cells; listed as DI-82): 1.17 and 0.99 and 1.08 and 1.15
- Protein expression level normalized to control (NT): Translationally-controlled tumor protein (TPT1) (CEM cells; listed as DI-82): 0.99 and 0.98 and 0.95
- RNR Level (CEM cells): ⟷
- dCK Level (CEM cells): ⟷
- AUC [1, 2]: 63 ± 4 µM·h
- Cmax [1, 2]: 6400 ± 700 nM
- t1/2 [1, 2]: 8.5 ± 3.0 h

Compound: NC(=S)N/N=C/c1ncccc1N [3-AP]
- AUC [1, 2]: 9.2 ± 1.8 µM·h
- Cmax [1, 2]: 2300 ± 700 nM
- t1/2 [1, 2]: 3.3 ± 1.0 h

Compound: CNCc1ccc(-c2cc(-c3nc(-c4ccc(S(=O)(=O)C(C)C)cc4)cnc3N)on2)cc1 [VE-822]
- Protein expression level normalized to control (NT): Eukaryotic translation initiation factor 6 (EIF6) (CEM cells): 1.09 and 1.10 and 1.08
- Protein expression level normalized to control (NT): Ribonucleoside-diphosphate reductase subunit M2 (RRM2) (CEM cells): 0.57 and 0.45 and 0.53
- Protein expression level normalized to control (NT): Translationally-controlled tumor protein (TPT1) (CEM cells): 0.80 and 0.79 and 0.85
- decrease of RRM1 protein level (CEM cells; following ATR inhibition, 12 h): > 20%
- decrease of RRM2 protein level (CEM cells; following ATR inhibition, 12 h): > 20%
- decrease of thymidylate synthase protein level (CEM cells; following ATR inhibition, 12 h): > 20%
- RNR Level (CEM cells): ↓
- dCK Level (CEM cells): ⟷
- Cmax [1, 3]: 1800 ± 200 nM
- half-life [1, 3]: 17 ± 1 h
- AUC ([1]; C57BL/6, mouse, 40 mg/kg, 3-AP 15, VE-822 40, dCKi 50 mg kg−1, read-out: AUC): 55 ± 2 µM·h
